Reference: PubChem BioAssay AID588428 (NMMLSC, 2011)
Active and inactive are the calls of the source.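 Rule for the calls: active = compounds whose thermal stabilization response is above zero, meaning they raise the protein's melting point; inactive = the rest.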

molecular target: Beta-adrenergic receptor kinase 1 (Homo sapiens) (UniProt P25098); assay: ligand-induced GRK2 thermal stabilization – biophysical, Thermofluor, set 1, orthogonal assay for GRK2 aptamer-displacement inhibitor project (AID 588428); conditions: purified GRK2 thermal shift, ANS fluorescence; at 200 µM; stronger effect = higher value
Sequence (P25098 whole entry, looked up): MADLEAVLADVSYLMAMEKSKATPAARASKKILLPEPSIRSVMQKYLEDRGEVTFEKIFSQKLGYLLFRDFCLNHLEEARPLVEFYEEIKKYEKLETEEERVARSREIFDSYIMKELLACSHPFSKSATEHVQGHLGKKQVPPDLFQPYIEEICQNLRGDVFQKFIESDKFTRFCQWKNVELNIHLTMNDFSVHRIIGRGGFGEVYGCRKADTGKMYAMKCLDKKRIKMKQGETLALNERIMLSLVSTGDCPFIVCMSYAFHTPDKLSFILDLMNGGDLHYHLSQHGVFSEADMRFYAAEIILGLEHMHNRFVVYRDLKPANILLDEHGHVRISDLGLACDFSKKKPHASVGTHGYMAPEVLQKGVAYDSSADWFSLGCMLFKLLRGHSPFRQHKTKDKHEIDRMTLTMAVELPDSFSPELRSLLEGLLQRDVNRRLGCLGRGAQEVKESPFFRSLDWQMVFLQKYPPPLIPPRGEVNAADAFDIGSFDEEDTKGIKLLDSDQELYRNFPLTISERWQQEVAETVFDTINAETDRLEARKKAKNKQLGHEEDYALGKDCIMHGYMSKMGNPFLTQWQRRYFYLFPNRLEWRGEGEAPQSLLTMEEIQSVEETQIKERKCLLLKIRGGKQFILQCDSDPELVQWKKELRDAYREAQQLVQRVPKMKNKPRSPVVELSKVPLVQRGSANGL

thermal stabilization response | Compound
-152% (inactive) | O=C(O)C1CC(=O)N(c2ccc3c(c2)OCCO3)C1 (stereo not given)
-53% (inactive) | O=C(CCS(=O)(=O)c1ccc(Br)cc1)NCCc1ccc(Cl)cc1
-79.1% (inactive) | Cc1cc(=O)[nH]c(SCC(=O)NCc2ccco2)n1
-112% (inactive) | CCOc1ccc(CCNC(=O)CCS(=O)(=O)c2ccc(Br)cc2)cc1OCC
-114% (inactive) | COc1ccc(CNC(=O)CCS(=O)(=O)c2ccc(Br)cc2)cc1
-75% (inactive) | O=C(CCS(=O)(=O)c1ccc(Br)cc1)Nc1cc(F)ccc1F
-176% (inactive) | Cc1cc2ccccc2n1CCNC(=O)c1cccs1
-35.6% (inactive) | CCc1ccccc1NC(=O)CCS(=O)(=O)c1ccc(Br)cc1
108% | Cc1ccccc1NC(=O)CCS(=O)(=O)c1ccc(Br)cc1
-5.78% (inactive) | Cc1cccc(N2CCN(C(=O)CCS(=O)(=O)c3ccc(Br)cc3)CC2C)c1 (stereo not given)
